# According to US20220395500A1, “SMALL MOLECULE ACTIVATORS OF INTERFERON REGULATORY FACTOR 3 AND METHODS OF USE THEREOF” (Neuralexo, Inc., priority 2020, published 2022):
# Key:
# [1] = test system: IRF3 related genes in brain cortical tissue; test: DMXAA-induced IRF-related gene expression in mouse brain cortex; type: in vivo
# Experimental: FIG. 7A is a bar graph depicting DMXAA-induced induction of IRF-related gene expression in mice. […] RNA was extracted and qtPCR was performed with indicated primers. Data is depicted as mRNA fold-change versus vehicle. Values depicted are group means+/−SEM; n=4 per group.
# (§1) Total RNA isolated from brain cortex, or RNA from cell culture, was reverse transcribed using an Omniscript Reverse Transcription kit (Qiagen). Quantitative PCR was performed using the TaqMan Gene Expression Assays (Applied Biosystems) on an ABI-prism 7700. Results were normalized to β-actin expression and analyzed relative to appropriate controls. The relative quantification of the gene of interest was determined using the comparative CT method (2^−ΔΔCt)
# Values depicted are group means+/−SEM; n=4 per group.
# cerebral ischemic injury = test: Middle cerebral artery occlusion (MCAO), infarct volume; type: in vivo, mouse; conditions: 60 minute MCAO, 24 hours
# Experimental: Mice were anesthetized and subjected to middle cerebral artery occlusion (MCAO) using the monofilament suture method. Briefly, a silicone-coated 7-0 monofilament nylon surgical suture was threaded through the external carotid artery to the internal carotid artery to block the middle cerebral artery; […] The suture was then removed to restore blood flow. Mice undergoing ischemic preconditioning followed by injurious ischemia were rested in their home cage for 72 h before receiving the second MCAO (45 min). Cerebral blood flow (CBF) was monitored throughout surgery by laser Doppler flowmetry. The mean CBF value between groups was consistent for each experiment. […] Body temperature was monitored and maintained at 37° C. with a thermostat-controlled heating pad.
# Mouse brain was sliced into 7×1 mm coronal sections before 2,3,5-triphenyltetrazolium chloride TTC staining, and the volume of infarct was determined by summing of the area of infarct from individual slices. The infarct size for each image was determined using NIH image analyses. […]
# IRFs are master regulators of innate immune receptors, constituting a family of DNA-binding proteins expressed in a variety of tissues. […] Infarct volume was measured 24 hours after surgery. […] Specifically, gene transcription was measured in the brain 24 hours post MCAO in LPS preconditioned wildtype, IRF3 deficient, and IRF7 deficient mice using quantitative PCR. […]
# Neuro2a cells = test: Gene induction in Neuro2a cells (qtPCR); type: cell-based, mouse; conditions: 10 ug/ml, 3 hours, compared to 5′pppRNA
# Experimental: RNA was collected from cell pellets and qtPCR was performed with indicated primers. Data is depicted as mRNA fold-change versus vehicle. Values are normalized to actin and are presented as fold change over vehicle control.
# as §1
# Since inflammatory pathways mediated by NF-κB are known to have negative effects on stroke outcome, the induction of key detrimental genes including TNF and IL-6 in response to drug treatment was evaluated. […] RNA was collected from cell pellets and qtPCR was performed with indicated primers. Values are normalized to actin and are presented as fold change over vehicle control.
# [2] = test system: plasma cytokines IL-6 and MCP1; test: Plasma cytokine induction in vivo in mice; design: species or system mouse; conditions: WT C57/BL6 mice, 10 mg/kg, i.v.
# Experimental: FIG. 27A is a bar graph illustrating the ability of NA-42 to induce plasma cytokine expression in vivo in mice. […] Expression is represented as pg/ml.
# FIG. 27B is a bar graph illustrating the ability of ND-13 to induce plasma cytokine expression in vivo in mice. […] Expression is represented as pg/ml.
# Plasma cytokine levels were evaluated using a cytokine 20-plex mouse ProcartaPlex kit (Invitrogen) for labeling of multiple cytokines within an individual sample and run on a Luminex 200 instrument.
# Select chemical entities corresponding to the NA and ND chemofamilies were examined as to their ability to induce the expression of various cytokines in vivo. […] Shown at FIG. 27A is a representative example showing NA-42 induction of IL-6 (top panel) and MCP1 (bottom panel).
# [3] = test system: IP-10 in human monocyte-derived macrophages; test: IP-10 induction in human monocyte-derived macrophages (ELISA); type: cell-based; conditions: dose response
# From the text: FIG. 24 is a graph of NA-42 dose dependent IP-10 induction in human monocyte-derived macrophages. IP-10 expression was monitored by Human CXCL10/IP10 ELISA (R&D Systems, Minneapolis, Minn.) and is expressed as pg/ml. Shown are group means+/−standard deviation; ****p<0.0001.
# FIG. 25 is a graph of ND-13 dose dependent IP-10 induction in human monocyte-derived macrophages. IP-10 expression was monitored by Human CXCL10/IP10 ELISA (R&D Systems, Minneapolis, Minn.) and is expressed as pg/ml. Shown are group means+/−standard deviation; ****p<0.0001.
# As discussed above with regard to Example 19, target specificity of chemical entities corresponding to the ND and NA chemofamilies was examined by dose-dependent expression of IP-10 in mBMDMs. In this example, 23, target specificity of chemical entities corresponding to the ND and NA chemofamiles was examined by determining dose-dependent expression of IP-10 in human primary cells, specifically monocyte-derived macrophages. […] For FIGS. 24-25, IP-10 expression was monitored by Human CXCL10/IP10 ELISA (R&D Systems, Minneapolis, Minn.), and is expressed at FIGS. 24-25 as pg/ml.
# [4] = 10 mg/kg IP, brain tissue at 3 hours
smiles,measurement,setting,value
"Cc1ccc2c(=O)c3cccc(CC(=O)O)c3oc2c1C [DMXAA, 5,6-dimethylxanthenone-4-acetic acid]",IRF3 related gene expression in brain,[1]; [4],significant increase
same,induction of pro-inflammatory genes TNF in brain,[1]; [4],minimal induction
same,IRF-mediated gene induction in the brain,"[1]; 5-fold lower dose (2 mg/kg IP), 3 hours, compared to vehicle",minimal increase
same,protection against ischemic injury in mice lacking IRF3,"cerebral ischemic injury; IRF3 KO mice, 250 μg IP",not protected
same,reduction in ischemic injury (infarct volume) compared to controls,"cerebral ischemic injury; wild-type mice, 250 μg IP at onset of reperfusion",2 fold
same,induction of IRF-regulated genes RSAD2 and IFIT1,Neuro2a cells,most robust induction
"CCOc1cccc(COc2ccc(C(=O)Nc3ccc(N4CCN(C(=O)c5cccs5)CC4)cc3)cc2)c1 [NA-42, 4-((3-ethoxybenzyl)oxy)-N-(4-(4-(thiophene-2-carbonyl)piperazin-1-yl)phenyl)benzamide]",plasma IL-6 and MCP1 expression in vivo,[2],robust expression
same,IP-10 induction in human monocyte-derived macrophages,[3],dose-dependent IP-10 induction
"COc1ccc(C(=O)Nc2cc(-c3nc4cc(C)c(C)cc4o3)ccc2C)cc1[N+](=O)[O-] [ND-13, N-(5-(5,6-dimethylbenzo[d]oxazol-2-yl)-2-methylphenyl)-4-methoxy-3-nitrobenzamide]",plasma IL-6 and MCP1 expression in vivo,[2],robust
same,IP-10 induction in human monocyte-derived macrophages,[3],dose-dependent IP-10 induction
